In patent US20170189372A1, “USE OF SUBSTITUTED CHROMAN COMPOUNDS” (INSTYTUT BIOLOGII MEDYCZNEJ, priority 2014, published 2017):

What was measured:
[1] = test system: reporter cell line for IL-2 (EL-4 cells); experiment: FCC primary screening with IL-2 reporter cells; type: cell-based, mouse; details: relative viability×(relative fluorescence−100); PMA and ionomycin activated, compound 0.4 μg/ml, 18 h
Experimental: (§1) Development of reporter cell lines was described previously (Ulleras, E., D. Trzaska, et al. (2005); “Development of the “Cell Chip”: a new in vitro alternative technique for immunotoxicity testing”, Toxicology 206(2): 245-56). Briefly, EL-4 cells were stably transfected with transgene consisting of promoter regions from mouse β-actin, interleukin-2 (IL-2), interleukin-4 (IL-4), interferon-γ (IFN-γ), and interleukin-10 (IL-10) and ORF for EGFP. Reporter cells were cultured at density 5×10^5-1×10^6 cells/ml in a humidified atmosphere with 5% CO2 at 37° C. in RPMI 1640 with Glutamax supplemented with 20% FCS and 0.5 μg/ml G418.
When applicable, cells and reagents handling was performed by JANUS Automated Workstation (PerkinElmer, Waltham, Mass., USA). Cells were seeded at a density of 5×10^4 per well in 96-well plates. In the primary screening reporter cells for IL-2 activated with PMA (50 ng/ml) and ionomycin (1 μM) were seeded in a 96-well plate and incubated with compounds from the chemical library in a total volume of 100 μL at 37° C. in a humidified atmosphere with 5% CO2 for 18 h. Concentration of compounds was 0.4 μg/ml. The final DMSO concentration was 0.2%, DMSO is not cytotoxic towards EL-4 reporter cells at this concentration. Control samples consisted of cells in medium with 0.2% DMSO with PMA (50 ng/ml) and ionomycin (1 μM). Following incubation cells were analyzed by flow cytometry. Viability was assessed in parallel to the level of EGFP-mediated fluorescence.
Selection of compounds was based on FCC parameters calculated using the following formula:
FCC parameter=relative viability×(relative fluorescence−100)
(§2) Compounds after primary screening were considered to be hits when FCC parameter calculated after primary screening was ≦−5000. After secondary screening area under the curve (A) of FCC parameter versus relative concentration was calculated (maximum concentration used, i.e. 50 μg/ml, was assumed to be 1).

[2] = test system: reporter cell line for β-actin (EL-4 cells); experiment: FCC test, expanded version, β-actin reporter cell line; type: cell-based, mouse; details: PMA and ionomycin, 1.56 to 50 μg/ml, 50 μg/ml assumed to be 1
Experimental: as §1
as §2, with “1). […]” for “1).”
(§3) Flavonoids selected after preliminary screening were undergoing FCC testing using 5 reporter cell lines: for β-actin, interleukin-2 (IL-2), interleukin-4 (IL-4), interferon-γ (IFN-γ) and interleukin-10 (IL-10). The tested concentrations were in the range from 1.56 to 50 μg/ml.
(§4) Using flow cytometry mean fluorescence intensity (columns, left Y axis) and cell viability (dots, the right Y-axis) was determined for all the experimental points and normalized relative to the control—cells incubated with medium with PMA and ionomycin. The data is the mean of the three experiments ±SEM. The statistical significance of differences between means were determined: * p<0.05, ** p<0.01, *** p<0.001 versus control. Values above the graph represent the area under the curve showing the relationship of the FCC parameter and the relative compound concentration.

[3] = test system: reporter cell line for interleukin-2 (EL-4 cells); experiment: FCC test, expanded version, IL-2 reporter cell line; type: cell-based, mouse; details: IL-2 reporter line; PMA and ionomycin; 1.56 to 50 μg/ml, 50 μg/ml assumed to be 1
Experimental: as §1
as §2, with “1). […]” for “1).”
as §3, §4

[4] = test system: reporter cell line for interleukin-4 (EL-4 cells); experiment: FCC test, expanded version, IL-4 reporter cell line; type: cell-based, mouse; details: IL-4 reporter line; PMA and ionomycin; 1.56 to 50 μg/ml, 50 μg/ml assumed to be 1
Experimental: as §1
as §2, with “1). […]” for “1).”
as §3, §4

[5] = test system: reporter cell line for interferon-γ (EL-4 cells); experiment: FCC test, expanded version, IFN-γ reporter cell line; type: cell-based, mouse; details: PMA and ionomycin, 1.56 to 50 μg/ml, 50 μg/ml assumed to be 1
Experimental: as §1
as §2, with “1). […]” for “1).”
as §3, §4

[6] = test system: reporter cell line for interleukin-10 (EL-4 cells); experiment: FCC test, expanded version, IL-10 reporter cell line; type: cell-based, mouse; details: IL-10 reporter line; PMA and ionomycin; 1.56 to 50 μg/ml, 50 μg/ml assumed to be 1
Experimental: as §1
as §2, with “1). […]” for “1).”
as §3, §4

[7] = test system: IL-2 production by Jurkat cells; experiment: ELISA for IL-2 in Jurkat cells; type: cell-based; details: Jurkat cells, PMA and ionomycin, 24 hours; for inhibition at 10 µg/mL / inhibition at 50 µg/mL: Homo sapiens
Experimental: Jurkat cells were seeded in 48-well plates at a concentration of 1 million/ml. Cells activated with PMA (50 ng/ml) and ionomycin (1 uM) or resting were incubated with 50 selected flavonoids in a concentration of 10 μg/ml and 50 μg/ml for 24 hours in a humidified atmosphere with 5% CO 2 at 37° C. As a control, the respective cells in the medium or in a medium with PMA and ionomycin were employed. After incubation, cells were centrifuged (8 minutes, 1300 rpm), and the cell-free supernatants were stored at −20° C. until measurements. IL-2 was assessed using a commercially available ELISA kits according to the manufacturer's instructions. Each experiment was repeated 3 times.
FCC assay and ELISA assay were repeated three times. Relative data were presented as the means±SEM. […] Statistical significance of differences observed in both assays was tested with ANOVA followed by post hoc Dunnett test using GraphPad software (La Jolla, Calif., USA). In statistical analysis non-relative data were used

## CC(C)=CCc1c(O)cc(O)c2c1OC(c1ccc(O)cc1)CC2=O (centres unmarked) [Compound 5, 5,7-dihydroxy-2-(4-hydroxyphenyl)-8-(3-methylbut-2-enyl)chroman-4-one]
[1]
  FCC parameter (IL-2 screening): −5264
[2]
  The area under the curve showing the relationship between the FCC parameter and compound concentration, AKT: −979
[3]
  The area under the curve showing the relationship between the FCC parameter and compound concentration, IL-2: −4991
[4]
  The area under the curve showing the relationship between the FCC parameter and compound concentration, IL-4: −3324
[5]
  The area under the curve showing the relationship between the FCC parameter and compound concentration, IFN: −4565
[6]
  The area under the curve showing the relationship between the FCC parameter and compound concentration, IL-10: −3119
[7]; 10 μg/ml
  inhibition at 10 µg/mL: 28%
[7]; 50 μg/ml
  inhibition at 50 µg/mL: 95%

## COc1cccc(C2CC(=O)c3ccccc3O2)c1OC (centres unmarked) [Compound 10, 2-(2,3-dimethoxyphenyl)chroman-4-one]
[1]
  FCC parameter (IL-2 screening): −6685
[2]
  The area under the curve showing the relationship between the FCC parameter and compound concentration, AKT: 118
[3]
  The area under the curve showing the relationship between the FCC parameter and compound concentration, IL-2: −2244
[4]
  The area under the curve showing the relationship between the FCC parameter and compound concentration, IL-4: −946
[5]
  The area under the curve showing the relationship between the FCC parameter and compound concentration, IFN: −3142
[6]
  The area under the curve showing the relationship between the FCC parameter and compound concentration, IL-10: −1336
[7]; 10 μg/ml
  inhibition at 10 µg/mL: 32%
[7]; 50 μg/ml
  inhibition at 50 µg/mL: 97%

## COc1cc(OC)c2c(c1)OC(c1ccccc1)CC2=O (centres unmarked) [Compound 8, 5,7-dimethoxy-2-phenylchroman-4-one]
[1]
  FCC parameter (IL-2 screening): −5788
[2]
  The area under the curve showing the relationship between the FCC parameter and compound concentration, AKT: 3973
[3]
  The area under the curve showing the relationship between the FCC parameter and compound concentration, IL-2: −2590
[4]
  The area under the curve showing the relationship between the FCC parameter and compound concentration, IL-4: 2380
[5]
  The area under the curve showing the relationship between the FCC parameter and compound concentration, IFN: −4396
[6]
  The area under the curve showing the relationship between the FCC parameter and compound concentration, IL-10: −628
[7]; 10 μg/ml
  inhibition at 10 µg/mL: 80%
[7]; 50 μg/ml
  inhibition at 50 µg/mL: 100%

## O=C1CC(c2ccccc2O)Oc2ccc(O)cc21 (centres unmarked) [Compound 6, 6-hydroxy-2-(2-hydroxyphenyl)chroman-4-one]
[1]
  FCC parameter (IL-2 screening): −5169
[2]
  The area under the curve showing the relationship between the FCC parameter and compound concentration, AKT: 3622
[3]
  The area under the curve showing the relationship between the FCC parameter and compound concentration, IL-2: −2227
[4]
  The area under the curve showing the relationship between the FCC parameter and compound concentration, IL-4: 367
[5]
  The area under the curve showing the relationship between the FCC parameter and compound concentration, IFN: −2999
[6]
  The area under the curve showing the relationship between the FCC parameter and compound concentration, IL-10: −179
[7]; 10 μg/ml
  inhibition at 10 µg/mL: 58%
[7]; 50 μg/ml
  inhibition at 50 µg/mL: 100%

## COc1ccc(C2CC(=O)c3cc(O)cc(O)c3O2)cc1 (centres unmarked) [Compound 1, 6,8-dihydroxy-2-(4-methoxyphenyl)chroman-4-one]
[1]
  FCC parameter (IL-2 screening): −8723
[2]
  The area under the curve showing the relationship between the FCC parameter and compound concentration, AKT: −622
[3]
  The area under the curve showing the relationship between the FCC parameter and compound concentration, IL-2: −2178
[4]
  The area under the curve showing the relationship between the FCC parameter and compound concentration, IL-4: −194
[5]
  The area under the curve showing the relationship between the FCC parameter and compound concentration, IFN: −1865
[6]
  The area under the curve showing the relationship between the FCC parameter and compound concentration, IL-10: −1435
[7]; 10 μg/ml
  Inhibition of IL-2 production (ELISA): No
[7]; 50 μg/ml
  inhibition at 50 µg/mL: 97%

## CC(=O)Oc1ccc(/C=C/C(=O)CC2OC(Oc3cc(OC(C)=O)c4c(c3)O[C@@H](c3ccc(OC(C)=O)cc3)CC4=O)C(OC(C)=O)C(OC(C)=O)C2OC(C)=O)cc1 (stereo partly drawn) [Compound 3, 4-(7-{6-[(3E)-4-(4-acetyloxyphenyl)-2-oxobut-3-enyl]-3,4,5-triacetyloxy(2H-3,4,5,6-tetrahydropyran-2-yloxy)}(2R)-5-acetyloxy-4-oxochroman-2-yl)phenyl acetate]
[1]
  FCC parameter (IL-2 screening): −5095
[2]
  The area under the curve showing the relationship between the FCC parameter and compound concentration, AKT: 945
[3]
  The area under the curve showing the relationship between the FCC parameter and compound concentration, IL-2: −4581
[4]
  The area under the curve showing the relationship between the FCC parameter and compound concentration, IL-4: −308
[5]
  The area under the curve showing the relationship between the FCC parameter and compound concentration, IFN: −3801
[6]
  The area under the curve showing the relationship between the FCC parameter and compound concentration, IL-10: −1509
[7]; 10 μg/ml
  Inhibition of IL-2 production (ELISA): 64%
[7]; 50 μg/ml
  Inhibition of IL-2 production (ELISA): 68%

## CC1(C)CC2(CC(c3ccccc3)Oc3cc(O)ccc32)NC(=S)N1 (centres unmarked) [Compound 2, Spiro[4H-1-benzopyran-4,4′(1′H)-pyrimidine]-2′(3′H)-thione, 2,3,5′,6′-tetrahydro-7-hydroxy-6′,6′-dimethyl-2-phenyl]
[1]
  FCC parameter (IL-2 screening): −5484
[2]
  The area under the curve showing the relationship between the FCC parameter and compound concentration, AKT: −1120
[3]
  The area under the curve showing the relationship between the FCC parameter and compound concentration, IL-2: −2394
[4]
  The area under the curve showing the relationship between the FCC parameter and compound concentration, IL-4: 261
[5]
  The area under the curve showing the relationship between the FCC parameter and compound concentration, IFN: −3977
[6]
  The area under the curve showing the relationship between the FCC parameter and compound concentration, IL-10: −2585
[7]; 10 μg/ml
  Inhibition of IL-2 production (ELISA): 35%
[7]; 50 μg/ml
  Inhibition of IL-2 production (ELISA): 91%

## COc1cccc2c1C(=O)CC(c1ccccc1)O2 (centres unmarked) [Compound 9, 5-methoxy-2-phenylchroman-4-one]
[1]
  FCC parameter (IL-2 screening): −5636
[2]
  The area under the curve showing the relationship between the FCC parameter and compound concentration, AKT: 3861
[3]
  The area under the curve showing the relationship between the FCC parameter and compound concentration, IL-2: −3872
[4]
  The area under the curve showing the relationship between the FCC parameter and compound concentration, IL-4: 675
[5]
  The area under the curve showing the relationship between the FCC parameter and compound concentration, IFN: −4745
[6]
  The area under the curve showing the relationship between the FCC parameter and compound concentration, IL-10: −1472
[7]; 10 μg/ml
  inhibition at 10 µg/mL: 43%
[7]; 50 μg/ml
  inhibition at 50 µg/mL: 92%

## COc1ccc2c(c1)OC(c1ccccc1)CC2=O (centres unmarked) [Compound 11, 7-methoxy-2-phenylchroman-4-one]
[1]
  FCC parameter (IL-2 screening): −6917
[2]
  The area under the curve showing the relationship between the FCC parameter and compound concentration, AKT: −754
[3]
  The area under the curve showing the relationship between the FCC parameter and compound concentration, IL-2: −3670
[4]
  The area under the curve showing the relationship between the FCC parameter and compound concentration, IL-4: −1499
[5]
  The area under the curve showing the relationship between the FCC parameter and compound concentration, IFN: −3975
[6]
  The area under the curve showing the relationship between the FCC parameter and compound concentration, IL-10: −777
[7]; 10 μg/ml
  inhibition at 10 µg/mL: 35%
[7]; 50 μg/ml
  inhibition at 50 µg/mL: 97%

## COc1ccc2c(c1)OC(c1cccc(OC)c1OC)CC2=O (centres unmarked) [Compound 7, 2-(2,3-dimethoxyphenyl)-7-methoxychroman-4-one]
[1]
  FCC parameter (IL-2 screening): −6178
[2]
  The area under the curve showing the relationship between the FCC parameter and compound concentration, AKT: −1357
[3]
  The area under the curve showing the relationship between the FCC parameter and compound concentration, IL-2: −4104
[4]
  The area under the curve showing the relationship between the FCC parameter and compound concentration, IL-4: −1865
[5]
  The area under the curve showing the relationship between the FCC parameter and compound concentration, IFN: −5873
[6]
  The area under the curve showing the relationship between the FCC parameter and compound concentration, IL-10: −2889
[7]; 10 μg/ml
  inhibition at 10 µg/mL: 67%
[7]; 50 μg/ml
  inhibition at 50 µg/mL: 92%
